BindingDB's records for doi:10.1016/j.bmcl.2012.10.040 (Pfizer, 2013)

How the values were obtained:
[1] = target: T1, Prostaglandin G/H synthase 2 (Homo sapiens, UniProt P35354); test: Inhibition of COX2 in human fetal fibroblast assessed as inhibition of IL-1beta-mediated PGE2 production after 50 mins by ELISA
T1 sequence (P35354 whole entry): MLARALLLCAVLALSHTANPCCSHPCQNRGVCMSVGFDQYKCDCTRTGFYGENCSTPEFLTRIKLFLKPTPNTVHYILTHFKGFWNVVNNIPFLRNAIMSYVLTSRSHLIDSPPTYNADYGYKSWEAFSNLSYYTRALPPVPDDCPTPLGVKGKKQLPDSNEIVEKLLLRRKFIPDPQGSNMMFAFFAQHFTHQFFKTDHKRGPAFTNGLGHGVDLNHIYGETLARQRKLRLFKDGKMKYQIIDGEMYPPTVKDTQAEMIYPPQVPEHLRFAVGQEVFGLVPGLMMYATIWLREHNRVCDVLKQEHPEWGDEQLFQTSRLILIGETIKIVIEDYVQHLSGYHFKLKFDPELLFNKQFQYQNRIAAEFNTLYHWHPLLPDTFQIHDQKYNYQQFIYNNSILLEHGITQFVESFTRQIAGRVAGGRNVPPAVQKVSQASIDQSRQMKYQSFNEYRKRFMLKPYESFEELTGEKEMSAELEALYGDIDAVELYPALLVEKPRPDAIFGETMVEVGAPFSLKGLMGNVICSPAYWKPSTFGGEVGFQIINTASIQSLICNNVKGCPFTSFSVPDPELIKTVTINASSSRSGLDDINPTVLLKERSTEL

[2] = target: T1, Prostaglandin G/H synthase 2; test: Inhibition of COX2 in human whole blood assessed as PGE2 level incubated for 15 mins prior to substrate addition measured after 10 mins by ELISA
[3] = target: T2, Prostaglandin G/H synthase 2 (Rattus norvegicus, UniProt P35355); test: Inhibition of COX2 in rat synovial fibroblast assessed as inhibition of IL-1-mediated PGE2 production
T2 sequence (P35355 whole entry): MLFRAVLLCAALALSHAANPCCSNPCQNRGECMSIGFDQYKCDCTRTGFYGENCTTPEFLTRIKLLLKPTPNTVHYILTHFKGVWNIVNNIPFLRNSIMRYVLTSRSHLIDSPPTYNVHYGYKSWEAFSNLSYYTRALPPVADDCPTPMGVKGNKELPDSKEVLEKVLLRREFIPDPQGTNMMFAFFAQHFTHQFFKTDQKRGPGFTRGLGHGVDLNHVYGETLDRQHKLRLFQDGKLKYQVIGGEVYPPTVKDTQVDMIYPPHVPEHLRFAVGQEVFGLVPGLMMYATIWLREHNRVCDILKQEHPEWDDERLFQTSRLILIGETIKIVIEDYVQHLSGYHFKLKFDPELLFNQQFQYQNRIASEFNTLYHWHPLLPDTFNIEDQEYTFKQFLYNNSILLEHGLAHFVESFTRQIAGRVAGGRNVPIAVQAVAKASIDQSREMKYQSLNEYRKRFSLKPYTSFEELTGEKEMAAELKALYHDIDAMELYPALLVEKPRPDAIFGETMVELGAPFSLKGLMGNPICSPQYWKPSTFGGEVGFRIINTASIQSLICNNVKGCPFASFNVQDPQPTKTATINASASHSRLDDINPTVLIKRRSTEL

[4] = target: T3, Prostaglandin G/H synthase 2 (Canis lupus familiaris, UniProt Q8SPQ9); test: Inhibition of COX2 in dog whole blood assessed as LPS-induced PGE2 production
T3 sequence (Q8SPQ9 whole entry): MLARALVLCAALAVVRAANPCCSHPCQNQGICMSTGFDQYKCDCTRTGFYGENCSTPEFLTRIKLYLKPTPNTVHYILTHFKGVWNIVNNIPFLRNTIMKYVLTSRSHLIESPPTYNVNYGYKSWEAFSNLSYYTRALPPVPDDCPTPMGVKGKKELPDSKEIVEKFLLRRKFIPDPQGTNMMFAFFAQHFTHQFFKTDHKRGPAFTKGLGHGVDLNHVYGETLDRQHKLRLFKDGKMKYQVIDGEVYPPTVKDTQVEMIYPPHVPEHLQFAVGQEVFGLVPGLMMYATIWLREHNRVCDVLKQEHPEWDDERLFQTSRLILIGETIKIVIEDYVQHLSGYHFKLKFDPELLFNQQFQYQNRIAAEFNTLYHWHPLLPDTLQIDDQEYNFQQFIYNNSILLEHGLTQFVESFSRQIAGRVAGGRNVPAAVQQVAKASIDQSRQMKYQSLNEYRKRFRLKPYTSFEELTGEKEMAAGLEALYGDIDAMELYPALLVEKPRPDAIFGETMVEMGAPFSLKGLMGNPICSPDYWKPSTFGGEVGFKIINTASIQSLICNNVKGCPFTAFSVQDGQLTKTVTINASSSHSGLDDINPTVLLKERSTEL

[5] = target: T1, Prostaglandin G/H synthase 2; test: Inhibition of COX2 in human whole blood assessed as LPS-induced PGE2 production incubated 15 mins prior to LPS challenge measured after 24 hrs by EIA

Row | IC50 [1] [nM] | IC50 [2] [nM] | IC50 [3] [nM] | IC50 [4] [nM] | IC50 [5] [nM] | Structure (SMILES)
1 | 85 | > 33600 | – | – | – | O=C(N[C@H]1CCC[C@@H]1COc1ccccc1)C1CCN(c2nc3cc(Cl)ccc3o2)CC1
2 | 618 | 76600 | – | – | – | O=C(N[C@H]1CCC[C@H]1OCc1ccccc1)C1CCN(c2nc3cc(Cl)ccc3o2)CC1
3 | > 10000 | – | – | – | – | O=C(N[C@H]1CC[C@H](CO)CC1)C1CCN(c2nc3cc(Cl)ccc3o2)CC1

Further lines, the compound ahead of its results:

Row | Structure (SMILES) | IC50 [1] [nM] | IC50 [2] [nM] | IC50 [3] [nM] | IC50 [4] [nM] | IC50 [5] [nM]
4 | O=C(N[C@@H]1CCC[C@H]1OCc1ccccc1)C1CCN(c2nc3cc(Cl)ccc3o2)CC1 | 296 | 27400 | – | – | –
5 | O=C(NC1CCCC1)C1CCN(c2nc3cc(Cl)ccc3o2)CC1 | 1010 | – | – | – | –
6 | O=C(N[C@H]1CCC[C@@H]1OCc1ccccc1)C1CCN(c2nc3cc(Cl)ccc3o2)CC1 | 35 | 7560 | > 30000 | 1230 | 934
7 | O=C(N[C@H]1CC[C@@H](CO)CC1)C1CCN(c2nc3cc(Cl)ccc3o2)CC1 | 1260 | 11100 | – | – | –
